Experimental findings from patent US20240132464A1, “HETEROCYCLIC COMPOUNDS AS E3 LIGASE INHIBITORS” (Accutar Biotechnology Inc., priority 2022, published 2024) are described below.

Bounds are passed on as bounds.

This assay addresses T1, GID4 (Uniprot ID: Q81VV7, residues 124-289) (Homo sapiens, UniProt Q8IVV7).
T1 construct: GID4 (Uniprot ID: Q81VV7, residues 124-289)
T1 sequence (Q8IVV7 124-289): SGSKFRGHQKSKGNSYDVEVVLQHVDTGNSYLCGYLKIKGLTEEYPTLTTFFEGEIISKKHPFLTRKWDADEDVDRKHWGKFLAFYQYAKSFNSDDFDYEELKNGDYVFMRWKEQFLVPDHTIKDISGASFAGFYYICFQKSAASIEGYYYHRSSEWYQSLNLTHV
As to the kind of experiment: GID4 competitive binding assay (AlphaScreen, GID4/degron peptide PGLW). Conditions: 24 nM GID4, 48 nM biotinylated degron peptide PGLW, 4° C., read-out: IC50 (Inhibition of GID4/Degron binding by test compounds). In a few lines: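 Displacement of biotin-tagged degron tetrapeptide PGLW (48 nM) from C-terminally 6His-tagged GID4 124-289 (24 nM) read by AlphaScreen proximity signal. Compound incubation 2 h, then beads 1 h, all at 4 °C, pH 7.5, 2% DMSO final; background-corrected inhibition fitted with variable slope for IC50.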
On the technique in general: Bead proximity is the source of the signal in Alpha formats.
`Brc1ccccc1C1CN(c2ccnc3[nH]cnc23)CCN1` (single isomer, unassigned) [Compound 35, (R/S)-7-(3-(2-bromophenyl)piperazin-1-yl)-3H-imidazo[4,5-b]pyridine]: the IC50 lay in the range of 500 to 5000 nM.

As for `CN(C)CCCC(=O)N1CC=C(c2cc(O)c3ncccc3c2)CC1` [Compound 309, 4-(dimethylamino)-1-(4-(8-hydroxyquinolin-6-yl)-3,6-dihydropyridin-1(2H)-yl)butan-1-one], the IC50 fell in the range of 500 to 5000 nM. As to `Nc1nc(N2CCOC(c3ccccc3Br)C2)c2[nH]ccc2n1` (single isomer, unassigned) [Compound 46, (R/S)-4-(2-(2-bromophenyl)morpholino)-5H-pyrrolo[3,2-d]pyrimidin-2-amine], the IC50 lay in the range of 500 to 5000 nM. For `CN1CCN(c2cc(N)nc(N)n2)CC1c1ccccc1Br` (single isomer, unassigned) [Compound 143, (R/S)-6-(3-(2-bromophenyl)-4-methylpiperazin-1-yl)pyrimidine-2,4-diamine] the value was below 500 nM. For `Nc1nc(N)c(F)c(N2CCOC(c3ccccc3Br)C2)n1` (single isomer, unassigned) [Compound 49, (R/S)-6-(2-(2-bromophenyl)morpholino)-5-fluoropyrimidine-2,4-diamine] the value was above 5000 nM; for `CNc1cc(N2CCCC(c3cnc4ccccn34)C2)nc(NC)n1` (racemic) [Compound 123, (S/R)-6-(3-(imidazo[1,2-a]pyridin-3-yl)piperidin-1-yl)-N2,N4-dimethylpyrimidine-2,4-diamine], 500 to 5000 nM; for `CC(C)c1cc(N2CCNC(c3cc(C(=O)NCCN(C)C)ccc3Br)C2)nc(N)n1` (racemic) [Compound 21, R or S-3-(4-(2-amino-6-isopropylpyrimidin-4-yl)piperazin-2-yl)-4-bromo-N-(2-(dimethylamino)ethyl)benzamide], below 500 nM.

Regarding `CN1CCN(C(=O)c2ccc(Br)c([C@H]3CN(c4cc(N)nc(N)n4)CCN3)c2)CC1` (racemic) [Compound 16, (S/R)-(4-bromo-3-(4-(2,6-diaminopyrimidin-4-yl)piperazin-2-yl)phenyl)(4-methylpiperazin-1-yl)methanone], the IC50 fell in the range of 500 to 5000 nM. As for `CC(C)c1cc(N2CCN(C)C(c3ccccc3Br)C2)nc(N)n1` (single isomer, unassigned) [Compound 160, (R/S)-4-(3-(2-bromophenyl)-4-methylpiperazin-1-yl)-6-isopropylpyrimidin-2-amine], the figure is 500 to 5000 nM; as for `CN1CCN(c2cc(N)nc(N)n2)C[C@@H]1c1ccccc1Br` (racemic) [Compound 144, (S/R)-6-(3-(2-bromophenyl)-4-methylpiperazin-1-yl)pyrimidine-2,4-diamine], above 5000 nM; as for `CC(C)c1cc(N2CCNC(c3cnc4ccccn34)C2)nc(N)n1` (centres unmarked) [Compound 32, 4-(3-(imidazo[1,2-a]pyridin-3-yl)piperazin-1-yl)-6-isopropylpyrimidin-2-amine], below 500 nM.

As to `CC(C)c1cc(N(C)CCc2c[nH]c3ccccc23)nc(N)n1` [Compound 179, N4-(2-(1H-indol-3-yl)ethyl)-6-isopropyl-N4-methylpyrimidine-2,4-diamine], the IC50 was 500 to 5000 nM. For `Nc1nc2c(c(N3CCCC(c4cnc5ccccn45)C3)n1)CSC2` (centres unmarked) [Compound 186, 4-(3-(imidazo[1,2-a]pyridin-3-yl)piperidin-1-yl)-5,7-dihydrothieno[3,4-d]pyrimidin-2-amine] the value was above 5000 nM. For `Nc1cc(N2CCNC(c3ccccc3Br)C2)nc(N)n1` (centres unmarked) [Compound 172, 6-(3-(2-bromophenyl)piperazin-1-yl)pyrimidine-2,4-diamine] the value was below 500 nM; for `Nc1cc(N2CCCC(O)(c3ccccc3Br)C2)nc(N)n1` (centres unmarked) [Compound 234, 3-(2-bromophenyl)-1-(2,6-diaminopyrimidin-4-yl)piperidin-3-ol], 500 to 5000 nM. As for `NC(=O)CCC1CCCN(c2nc(N)nc3c2CSC3)C1` (centres unmarked) [Compound 201, 3-(1-(2-amino-5,7-dihydrothieno[3,4-d]pyrimidin-4-yl)piperidin-3-yl)propanamide], the figure is above 5000 nM. On to `CN(C)CCCNC(=O)N1CC=C(c2cc(O)c3ncccc3c2)CC1` [Compound 306, N-(3-(dimethylamino)propyl)-4-(8-hydroxyquinolin-6-yl)-3,6-dihydropyridine-1(2H)-carboxamide], for which the IC50 lay in the range of 500 to 5000 nM. On to `Nc1cc(Nc2cccc(-c3cnccn3)c2)nc(N)n1` [Compound 192, N4-(3-(pyrazin-2-yl)phenyl)pyrimidine-2,4,6-triamine], for which the IC50 was 500 to 5000 nM. As for `Nc1cc(N2CCNC(c3cnc4ccccn34)C2)nc(N)n1` (racemic) [Compound 119, (S/R)-6-(3-(imidazo[1,2-a]pyridin-3-yl)piperazin-1-yl)pyrimidine-2,4-diamine], the figure is above 5000 nM.

As to `CC(C)c1cc(N2CCN(C)C(c3cnc4ccccn34)C2)nc(N)n1` (racemic) [Compound 106, (R/S)-4-(3-(imidazo[1,2-a]pyridin-3-yl)-4-methylpiperazin-1-yl)-6-isopropylpyrimidin-2-amine], the IC50 was below 500 nM. As for `CN(C)CCCNC(=O)c1nnc(-c2cc(O)c3ncccc3c2)[nH]1` [Compound 262, N-(3-(dimethylamino)propyl)-5-(8-hydroxyquinolin-6-yl)-4H-1,2,4-triazole-3-carboxamide], the figure is below 500 nM. For `COc1ccccc1C1CN(c2cc(C(C)C)nc(N)n2)CCN1` (centres unmarked) [Compound 171, 4-isopropyl-6-(3-(2-methoxyphenyl)piperazin-1-yl)pyrimidin-2-amine] the value was 500 to 5000 nM. Regarding `Nc1nc(NC2CC2)cc(N2CCN(CCO)C(c3ccccc3Br)C2)n1` (single isomer, unassigned) [Compound 44, (R/S)-2-(4-(2-amino-6-(cyclopropylamino)pyrimidin-4-yl)-2-(2-bromophenyl)piperazin-1-yl)ethan-1-ol], the IC50 lay within 500 to 5000 nM.

For `Nc1nc(N2CCCC(c3ccn[nH]3)C2)c2ccccc2n1` (centres unmarked) [Compound 213, 4-(3-(1H-pyrazol-5-yl)piperidin-1-yl)quinazolin-2-amine], the IC50 is above 5000 nM.

For `CNc1cc(N2CCNC(c3ccccc3Br)C2)nc(N)n1` (centres unmarked) [Compound 167], the IC50 was below 500 nM. As for `CNc1cc(N2CCCC(c3cnc4ccccn34)C2)nc(C(C)C)n1` (single isomer, unassigned) [Compound 125, (S/R)-6-(3-(imidazo[1,2-a]pyridin-3-yl)piperidin-1-yl)-2-isopropyl-N-methylpyrimidin-4-amine], the figure is 500 to 5000 nM; as for `CN(C)CCCNC(=O)c1c(F)cc(-c2cc(O)c3ncccc3c2)cc1F` [Compound 314, N-(3-(dimethylamino)propyl)-2,6-difluoro-4-(8-hydroxyquinolin-6-yl)benzamide], 500 to 5000 nM; as for `CNc1nc(N)cc(N2CCNC(c3ccccc3Br)C2)n1` (single isomer, unassigned) [Compound 113, (R/S)-6-(3-(2-bromophenyl)piperazin-1-yl)-N2-methylpyrimidine-2,4-diamine], 500 to 5000 nM. As for `Cc1c(-c2ccc(Br)c([C@H]3CN(c4cc(N)nc(N)n4)CCN3)c2)cnn1C` (racemic) [Compound 5, (S/R)-6-(3-(2-bromo-5-(1,5-dimethyl-1H-pyrazol-4-yl)phenyl)piperazin-1-yl)pyrimidine-2,4-diamine], the figure is below 500 nM.

As to `CC(C)c1cc(N2CCN[C@@H](c3cc(C(F)(F)F)ccc3Br)C2)nc(N)n1` (racemic) [Compound 14, (S/R)-4-(3-(2-bromo-5-(trifluoromethyl)phenyl)piperazin-1-yl)-6-isopropylpyrimidin-2-amine], the IC50 was 500 to 5000 nM. As for `CC(C)c1cc(-c2cc(-c3ccnn3C)c3cccc(-c4cc[nH]n4)c3n2)cc(N)n1` [Compound 367, 6-isopropyl-4-(4-(1-methyl-1H-pyrazol-5-yl)-8-(1H-pyrazol-3-yl)quinolin-2-yl)pyridin-2-amine], the figure is 500 to 5000 nM; as for `O=C(c1ccc(-c2cc(O)c3ncccc3c2)cc1)N1CCCC1` [Compound 301, (4-(8-hydroxyquinolin-6-yl)phenyl)(pyrrolidin-1-yl)methanone], 500 to 5000 nM. For `CC(C)c1nc(N)cc(N2CCNC(c3ccccc3Br)C2)n1` (single isomer, unassigned) [Compound 76, (R/S)-6-(3-(2-bromophenyl)piperazin-1-yl)-2-isopropylpyrimidin-4-amine] the value was below 500 nM. As for `Nc1nc(N2CCCC(c3ccn[nH]3)C2)c2sccc2n1` (centres unmarked) [Compound 217, 4-(3-(1H-pyrazol-5-yl)piperidin-1-yl)thieno[3,2-d]pyrimidin-2-amine], the figure is above 5000 nM.

On to `Nc1cc(N2CC[C@H](O)[C@@H](c3ccccc3Br)C2)nc(N)n1` (relative stereo) [Compound 222, (3,4-trans)-3-(2-bromophenyl)-1-(2,6-diaminopyrimidin-4-yl)piperidin-4-ol], for which the IC50 fell in the range of 500 to 5000 nM. With `CN1CC(CNC(=O)c2cccc(-c3ccc4ccnc(N)c4c3)c2)C1` [Compound 347, 3-(1-aminoisoquinolin-7-yl)-N-((1-methylazetidin-3-yl)methyl)benzamide], the IC50 was above 5000 nM.

On to `COC(=O)c1ccc(Br)c(C2CN(c3cc(N)nc(N)n3)CCN2)c1` (centres unmarked) [Compound 38, methyl 4-bromo-3-(4-(2,6-diaminopyrimidin-4-yl)piperazin-2-yl)benzoate], for which the IC50 is below 500 nM. For `Nc1nc2c(c(N3CCNC(c4ccccc4Br)C3)n1)COCC2` (centres unmarked) [Compound 184, 4-(3-(2-bromophenyl)piperazin-1-yl)-7,8-dihydro-5H-pyrano[4,3-d]pyrimidin-2-amine], the IC50 was in the range of 500 to 5000 nM.
